Experimental data taken from EP1827382B1, “NOVEL GALENIC SYSTEM FOR ACTIVE PRINCIPLE TRANSPORT, PREPARATION METHOD AND USE” (Capsugel France, priority 2004, dated 2006).

Assay: Resistance test in acid medium (omeprazole content after neutralisation, over time)
Type: physicochemical
Conditions: stirred medium pH 1,2, 37,5°C; omeprazole assayed by HPLC after neutralisation to pH=6,8, over time; figure 1
Protocol: Pour déterminer la résistance au pH acide, les préparations sont placées en milieu agité à pH 1,2 à 37,5°C. La résistance au pH acide est déterminée par le dosage du taux d'Oméprazole après neutralisation à pH=6,8 en fonction du temps.
L'Oméprazole est dosée par HPLC après extraction.

In the case of `COc1ccc2[nH]c([S+]([O-])Cc3ncc(C)c(OC)c3C)nc2c1` (stereo not shown) [Oméprazole libre, Oméprazole], the “résistance au pH acide” value is reported as “dégradé en quelques minutes”.
